From PubChem BioAssay (NCI)
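Assay format: 96-well plates, 48-hour exposure. TGI: total growth inhibition.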

Key:
Assay in all cases: NCI tumour cell line growth inhibition, 48 h
LOX IMVI melanoma = test system: LOX IMVI melanoma
A549 NSCLC = test system: A549 NSCLC
HOP-62 NSCLC = test system: HOP-62 NSCLC
SF-268 CNS = test system: SF-268 CNS
MDA-MB-231 breast = test system: MDA-MB-231 breast
NCI-H522 lung = test system: NCI-H522 lung
RPMI-8226 leukemia = test system: RPMI-8226 leukemia
M14 melanoma = test system: M14 melanoma
SF-295 CNS = test system: SF-295 CNS
TK-10 renal = test system: TK-10 renal
SNB-75 CNS = test system: SNB-75 CNS
HCT-116 colon = test system: HCT-116 colon
EKVX NSCLC = test system: EKVX NSCLC
K-562 leukemia = test system: K-562 leukemia
HCT-15 colon = test system: HCT-15 colon
CCRF-CEM leukemia = test system: CCRF-CEM leukemia
SK-MEL-28 melanoma = test system: SK-MEL-28 melanoma
U251 CNS = test system: U251 CNS
IGROV1 ovarian = test system: IGROV1 ovarian
HOP-92 NSCLC = test system: HOP-92 NSCLC
HL-60(TB) leukemia = test system: HL-60(TB) leukemia
SW-620 colon = test system: SW-620 colon
786-0 renal = test system: 786-0 renal
CAKI-1 renal = test system: CAKI-1 renal
UACC-62 melanoma = test system: UACC-62 melanoma
OVCAR-3 ovarian = test system: OVCAR-3 ovarian
SR leukemia = test system: SR leukemia
MDA-MB-435 = test system: MDA-MB-435
MALME-3M melanoma = test system: MALME-3M melanoma
T-47D breast = test system: T-47D breast
OVCAR-8 ovarian = test system: OVCAR-8 ovarian
SF-539 CNS = test system: SF-539 CNS
MDA-N = test system: MDA-N
SK-MEL-5 melanoma = test system: SK-MEL-5 melanoma
SK-MEL-2 melanoma = test system: SK-MEL-2 melanoma
NCI-H460 lung = test system: NCI-H460 lung
OVCAR-4 ovarian = test system: OVCAR-4 ovarian
SK-OV-3 ovarian = test system: SK-OV-3 ovarian
DU-145 prostate = test system: DU-145 prostate
HS 578T breast = test system: HS 578T breast
MOLT-4 leukemia = test system: MOLT-4 leukemia
NCI/ADR-RES ovarian = test system: NCI/ADR-RES ovarian
PC-3 prostate = test system: PC-3 prostate
UACC-257 melanoma = test system: UACC-257 melanoma
A498 renal = test system: A498 renal
NCI-H226 lung = test system: NCI-H226 lung
OVCAR-5 ovarian = test system: OVCAR-5 ovarian
MCF7 breast = test system: MCF7 breast
COLO 205 colon = test system: COLO 205 colon
ACHN renal = test system: ACHN renal
SN12C renal = test system: SN12C renal
HT29 colon = test system: HT29 colon
UO-31 renal = test system: UO-31 renal
BT-549 breast = test system: BT-549 breast
NCI-H23 lung = test system: NCI-H23 lung
KM12 colon = test system: KM12 colon
SNB-19 CNS = test system: SNB-19 CNS
RXF 393 renal = test system: RXF 393 renal

## CC(C)=CCc1c(O)c(CC=C(C)C)c2oc3c(c(=O)c2c1O)C(C=C(C)C)Oc1cc(O)ccc1-3 (centres undefined)
LOX IMVI melanoma
  TGI: 16 µM
A549 NSCLC
  TGI: 20.6 µM
HOP-62 NSCLC
  TGI: 31 µM
SF-268 CNS
  TGI: 28 µM
MDA-MB-231 breast
  TGI: 25.6 µM
NCI-H522 lung
  TGI: 15.2 µM
RPMI-8226 leukemia
  TGI: 20.6 µM
M14 melanoma
  TGI: 21 µM
SF-295 CNS
  TGI: 19.2 µM
TK-10 renal
  TGI: 13.3 µM
SNB-75 CNS
  TGI: 14.1 µM
HCT-116 colon
  TGI: 13.2 µM
EKVX NSCLC
  TGI: 14.5 µM
K-562 leukemia
  TGI: 16.6 µM
HCT-15 colon
  TGI: 19.1 µM
CCRF-CEM leukemia
  TGI: 7.68 µM
SK-MEL-28 melanoma
  TGI: 21.5 µM
U251 CNS
  TGI: 16.7 µM
IGROV1 ovarian
  TGI: 20.2 µM
HOP-92 NSCLC
  TGI: 28.3 µM
HL-60(TB) leukemia
  TGI: 29.8 µM
SW-620 colon
  TGI: 18.1 µM
786-0 renal
  TGI: 19.5 µM
CAKI-1 renal
  TGI: 19.4 µM
UACC-62 melanoma
  TGI: 18 µM
OVCAR-3 ovarian
  TGI: 14.8 µM
SR leukemia
  TGI: 8.29 µM
MDA-MB-435
  TGI: 13.7 µM
MALME-3M melanoma
  TGI: 37 µM
T-47D breast
  TGI: 15.4 µM
OVCAR-8 ovarian
  TGI: 24.4 µM
SF-539 CNS
  TGI: 25.5 µM
MDA-N
  TGI: 12.1 µM
SK-MEL-5 melanoma
  TGI: 21.5 µM
SK-MEL-2 melanoma
  TGI: 7.93 µM
NCI-H460 lung
  TGI: 17 µM
OVCAR-4 ovarian
  TGI: 23.3 µM
SK-OV-3 ovarian
  TGI: 29 µM
DU-145 prostate
  TGI: 24.3 µM
HS 578T breast
  TGI: 43.8 µM
MOLT-4 leukemia
  TGI: 16.6 µM
NCI/ADR-RES ovarian
  TGI: 38.4 µM
PC-3 prostate
  TGI: 14.4 µM
UACC-257 melanoma
  TGI: 26.9 µM
A498 renal
  TGI: 29.8 µM
NCI-H226 lung
  TGI: 49.8 µM
OVCAR-5 ovarian
  TGI: 33.1 µM
MCF7 breast
  TGI: 17.5 µM
COLO 205 colon
  TGI: 30.3 µM
ACHN renal
  TGI: 15.4 µM
SN12C renal
  TGI: 18.2 µM
HT29 colon
  TGI: 23.1 µM
UO-31 renal
  TGI: 15.7 µM
BT-549 breast
  TGI: 25 µM
NCI-H23 lung
  TGI: 16.2 µM
KM12 colon
  TGI: 11.6 µM
SNB-19 CNS
  TGI: 24.2 µM

## CCN=C(N)CSS(=O)(=O)O
LOX IMVI melanoma
  TGI: > 100 µM
A549 NSCLC
  TGI: > 100 µM
HOP-62 NSCLC
  TGI: > 100 µM
SF-268 CNS
  TGI: > 100 µM
MDA-MB-231 breast
  TGI: > 100 µM
NCI-H522 lung
  TGI: > 100 µM
RPMI-8226 leukemia
  TGI: > 100 µM
M14 melanoma
  TGI: > 100 µM
SF-295 CNS
  TGI: > 100 µM
TK-10 renal
  TGI: > 100 µM
SNB-75 CNS
  TGI: > 100 µM
HCT-116 colon
  TGI: > 100 µM
EKVX NSCLC
  TGI: > 100 µM
K-562 leukemia
  TGI: > 100 µM
HCT-15 colon
  TGI: > 100 µM
CCRF-CEM leukemia
  TGI: > 100 µM
SK-MEL-28 melanoma
  TGI: > 100 µM
U251 CNS
  TGI: > 100 µM
IGROV1 ovarian
  TGI: > 100 µM
HOP-92 NSCLC
  TGI: > 100 µM
HL-60(TB) leukemia
  TGI: > 100 µM
SW-620 colon
  TGI: > 100 µM
786-0 renal
  TGI: > 100 µM
CAKI-1 renal
  TGI: > 100 µM
UACC-62 melanoma
  TGI: > 100 µM
OVCAR-3 ovarian
  TGI: > 100 µM
SR leukemia
  TGI: > 100 µM
MDA-MB-435
  TGI: > 100 µM
MALME-3M melanoma
  TGI: > 100 µM
T-47D breast
  TGI: > 100 µM
OVCAR-8 ovarian
  TGI: > 100 µM
SF-539 CNS
  TGI: > 100 µM
MDA-N
  TGI: > 100 µM
SK-MEL-5 melanoma
  TGI: > 100 µM
SK-MEL-2 melanoma
  TGI: > 100 µM
NCI-H460 lung
  TGI: > 100 µM
OVCAR-4 ovarian
  TGI: > 100 µM
SK-OV-3 ovarian
  TGI: > 100 µM
DU-145 prostate
  TGI: > 100 µM
HS 578T breast
  TGI: > 100 µM
MOLT-4 leukemia
  TGI: > 100 µM
NCI/ADR-RES ovarian
  TGI: > 100 µM
PC-3 prostate
  TGI: > 100 µM
UACC-257 melanoma
  TGI: > 100 µM
A498 renal
  TGI: > 100 µM
NCI-H226 lung
  TGI: > 100 µM
OVCAR-5 ovarian
  TGI: > 100 µM
MCF7 breast
  TGI: > 100 µM
COLO 205 colon
  TGI: > 100 µM
ACHN renal
  TGI: > 100 µM
RXF 393 renal
  TGI: > 100 µM
SN12C renal
  TGI: > 100 µM
HT29 colon
  TGI: > 100 µM
BT-549 breast
  TGI: > 100 µM
NCI-H23 lung
  TGI: > 100 µM
KM12 colon
  TGI: > 100 µM
SNB-19 CNS
  TGI: > 100 µM
